{"source": "paper PMC6235670", "about": "“An mTOR Signaling Modulator Suppressed Heterotopic Ossification of Fibrodysplasia Ossificans Progressiva” (Stem Cell Reports, 2018)", "key": {"resFOP-iMSCs": {"test_system": "resFOP-iMSCs", "text": "(§1) Generation of ATDC5 stably expressing ACVR1. WT - or FOP-ACVR1 was inserted into doxycycline (Dox)- inducible vector KW111 (Woltjen et al., 2009), which enables us to easily produce stably expressing cell lines utilizing the piggyBac (PB) transposon system from the cabbage looper moth Trichoplusia ni (Ding et al., 2005) (KW111/WT-ACVR1 or KW111/FOP-ACVR1). KW111/WT-ACVR1 or KW111/FOP-ACVR1 and PBaseII plasmid (PB transposase expression vector) ( Matsui et al., 2014 ) were co-transfected into ATDC5 cells by FuGeneHD® (Promega) according to the manufacturer’s protocol, and the neomycin- resistant population (500 µg/mL) was selected. Further selection was performed by selecting a mCherry high positive population (< 5%) after six hours of Dox treatment, sorting it with fluorescent-activated cell sorting (FACS) using AriaII (BD) according to the manufacturer’s protocol, and designating it as ATDC5/WT-ACVR1 or ATDC5/FOP-ACVR1. […]\n(§2) HTS campaign and follow-up screens. […] After 3 days incubation, Alkaline Phosphatase activity (ALP) or AlamarBlue activity was measured using Amplite™ Colorimetric Alkaline Phosphatase Assay Kit (AAT Bioquest) or alamarBlue® Cell Viability Reagent (Thermo Fisher Scientific) according to the manufacturer’s protocol, respectively. T h e absorbance at 400 nm (Abs for ALP) or Relative Fluorescent Unit of Ex560/Em590 nm (RFU for AlamarBlue) was measured on POWERSCAN4 (DS Pharma Biomedical) or EnVision® Multilabel Reader (PerkinElmer).\n(§3) Inhibitory effects of the screened compounds are given as percent inhibition, which was calculated using the following equation: (1-([Abs of compound] - [Abs of Min])/([Abs of Max] - [Abs of Min]))× 100, where [Abs of Max] and [Abs of Min] are the mean Abs of DMSO control and 1 µM DMH-1, respectively. The Z’ factor, which is widely used as a measure of the assay quality of each plate, was calculated using the following equation: Z’ factor = 1 - 3 × ([SD of Max] + [SD of Min])/([Abs of Max] - [Abs of Min]) (SI Appendix, Fig. […]"}, "FOP-iMSCs": {"test_system": "FOP-iMSCs", "settings": "TGF-β3 10 ng/mL, 7 days, 1 nM-1 µM", "text": "as §1, §2, §3"}, "[1]": {"test_system": "BMP-7-induced HO model mice (C57BL/6)", "assay": "BMP-7-induced HO model mice", "text": "(§4) MTOR s604 […]tt […]at […]\nFor X- ray images, mice were anesthetized with isoflurane (5% for induction, 2-3% for maintenance, Abbvie), immobilized and X-rayed using µFX-1000 (Fujifilm) or DX-50 (Faxitron Bioptics). µCT images were scanned using X-ray CT systems (inspeXio SMX-100CT, Shimadzu) and analyzed with TRI/3D-BON software (Ratoc System Engineering) according to the manufacturer's instructions. Four weeks after injection, the injected sites were harvested, fixed with 4% paraformaldehyde for 24 h, embedded in paraffin, and sectioned and stained […]\n(§5) BMP-7-induced HO model mice. BMP -7 (2 µ g/mouse) was injected into the right gastrocnemius muscle of C57BL/6NJcl mice (6-8 weeks, male, CLEA Japan), and compounds were administered once a day, five times a week (intraperitoneal administration). Mice were analyzed 2 weeks after injection. […]"}, "[2]": {"test_system": "healthy control iPSC (414C2)-derived iMSCs", "assay": "Wound healing assay"}, "ERBB2": {"test_system": "ERBB2", "settings": "panel of 300 recombinant protein kinases; ref Anastassiadis et al., 2011; cited from earlier work"}, "C57BL/6 mice": {"test_system": "C57BL/6 mice", "assay": "Growth plate histology and normal bone µCT in compound-administered BMP-7-injected mice", "settings": "5 mg/kg i.p., 2 weeks", "experimental": "as §4\nSystem Engineering) according to the manufacturer's instructions. […]\nas §5\nHistological analysis of growth plates chondrocytes. Knee joints were obtained from BMP-7-injected and test compounds-administrated C57BL/6NJcl mice after 2 weeks treatment and fixed, paraffin-embedded, and sectioned and stained with Safranin O. The thickness of the proliferative and hypertrophic zones of the growth plate were measured using ImageJ software on images obtained using a Keyence microscope (Keyence A merica). The proliferative zone was defined as the region with flat chondrocytes stacked in longitudinal columns, and the hypertrophic zone as the region where chondrocytes are enlarged in size and form clusters.\nNormal bone µCT. The left legs of mice were obtained from BMP -7-injected and test -compounds administrated C57BL/6NJcl mice after 2 weeks treatment. The region of interest (ROI) included the femur- tibia (entire femur in addition to the part of tibia above tibia/fibular junction). […]\nTests of side effects of direct and indirect mTOR inhibitors. Related"}, "ATDC5/FOP-ACVR1 cells": {"test_system": "ATDC5/FOP-ACVR1 cells", "assay": "ALP assay (HTS and dose-response) in ATDC5/FOP-ACVR1", "assay_type": "cell-based, mouse", "settings": "Mus musculus, same protocol as HTS (72 h)"}}}
{"smiles": "FC(F)(F)c1ccc(/C=C/c2nc(COc3ccc(CCCCn4ccnn4)cc3)co2)cc1", "note": "[TAK 165, mubritinib]", "values": [{"measurement": "chondrogenesis of resFOP-iMSCs stimulated with Activin-A (GAG)", "setting": "resFOP-iMSCs; Activin-A 100 ng/mL, 7 days, 1 nM-1 µM", "value": "suppressed"}, {"measurement": "effect on FOP cells versus normal cells", "setting": "resFOP-iMSCs; FOP-iMSCs vs resFOP-iMSCs", "value": "stronger effects on FOP cells than on normal cells"}, {"measurement": "chondrogenesis of FOP-iMSCs stimulated with TGF-β3 (GAG)", "setting": "FOP-iMSCs", "value": "suppressed"}, {"measurement": "body weight change compared to vehicle group", "setting": "[1]; i.p. for 2 weeks, n=5", "value": "No significant differences"}, {"measurement": "BMP-7-induced HO (heterotopic bone volume)", "setting": "[1]; i.p. once daily 5 times a week for 2 weeks", "value": "suppressed"}, {"measurement": "# of HO (> 20 mm3): number of mice harboring HO", "setting": "[1]; i.p. once daily 5 times a week for 2 weeks, N = 5", "value": "1/5"}, {"measurement": "Relative cell migration (wound healing assay) vs DMSO", "setting": "[2]; 10 nM rapamycin or 1 µM TAK165, 24 h", "value": "n.s."}, {"measurement": "wound healing in vitro", "setting": "[2]; 1 µM, 24 h", "value": "did not impair"}, {"measurement": "selectivity for ERBB2", "setting": "ERBB2", "value": "highly selective"}, {"measurement": "Bone Mineral Density (normal bone µCT) vs vehicle", "setting": "C57BL/6 mice", "value": "n.s."}, {"measurement": "Bone volume (normal bone µCT, femur-tibia) vs vehicle", "setting": "C57BL/6 mice", "value": "n.s."}, {"measurement": "Hypertrophic zone thickness of growth plate vs vehicle", "setting": "C57BL/6 mice", "value": "n.s."}, {"measurement": "Proliferative zone thickness of growth plate vs vehicle", "setting": "C57BL/6 mice", "value": "n.s."}, {"measurement": "chondrogenesis of normal chondrocytes (growth plate)", "setting": "C57BL/6 mice", "value": "did not impair"}, {"measurement": "normal skeletal development in vivo", "setting": "C57BL/6 mice", "value": "did not impair"}, {"measurement": "IC50", "setting": "ATDC5/FOP-ACVR1 cells", "value": 39, "unit": "nM"}]}
